US20010049373A1, “Materials and methods for killing nematodes and nematode eggs” (priority 2000, published 2001)

System: Caenorhabditis elegans
Assay: C. elegans L1 larvae dose-response, 5 day visual viability score (Examples 2 and 7)
Type: in vivo
Set-up: key: Dead: only stiff L1s (no movement); Dead (L4): worms are dead, but at a later larval stage; majority of worms are L1 (based on size); majority of worms are L2 (based on size); majority of worms are L3 (based on size); majority of worms are L4 (based on size); AD: majority of worms are adult; #AD: 5 adult worms or less; B!: sterile (0-25 progeny); B: low broodsize (25-100 progeny); ˜B: moderate broodsize (100-250 progeny); <: reduced broodsize (250-500 progeny); OK: no effect (˜1000+ progeny)
Details: day 5, Table 3
Outline: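 Twenty L1 larvae per well in NGM with E. coli HB101 were exposed to six 3-fold dilutions from 70 μM to 0.3 μM, 1.4% DMSO final, at 20° C. Day-5 viability was scored visually under a dissecting microscope by developmental stage, adult count and brood size.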

CCC1CCCCN1c1cc(Oc2ccc3oc4ccccc4c3c2)ncn1 (stereo not drawn) [AKC 109]
5 Day Visual Score V6 (0.3 μM (procedure of Example 2)): B (low broodsize (25-100 progeny))
5 Day Visual Score V2 (23.3 μM (procedure of Example 2)): L1
5 Day Visual Score V1 (70 μM (procedure of Example 2)): L1
